Results: patent US9115143B2, “Substituted indole derivatives as gamma secretase modulators” (Janssen Pharmaceuticals, Inc., priority 2011, dated 2015)

How the values were obtained:
[1] = tested on: Aβ38; experiment: In vivo efficacy B-2b: brain soluble Aβ38, MSD electrochemiluminescence multiplex; conditions: mouse brain soluble fraction, dose 30 mg/kg oral dosing, 4 h after dose; untreated control set at 100; read-out: Aβ38 (% vs Ctrl)_Mean
Excerpt: (§1) To determine whether acute administration of an Aβ38 increasing agents would increase Aβ38 levels in vivo, non-transgenic rodents, e.g. mice or rats were used. Animals treated with the Aβ38 increasing agents were examined and compared to those untreated or treated with vehicle and brain levels of soluble Aβ42, Aβ40, Aβ38, and Aβ37 were quantitated by MSD electrochemiluminescence detection technology. Treatment periods varied from hours (h) to days and were adjusted based on the results of the Aβ38 increase once a time course of onset of effect could be established.
(§2) A typical protocol for measuring Aβ38 increase in vivo is shown but it is only one of many variations that could be used to optimize the levels of detectable Aβ. For example, Aβ38 increasing agents were formulated in 20% of Captisol® (a sulfobutyl ether of β-cyclodextrin) in water or 20% hydroxypropyl β cyclodextrin. The Aβ38 increasing agents were administered as a single oral dose or by any acceptable route of administration to overnight fasted animals. After 4 h, the animals were sacrificed and Aβ38 levels were analysed.
(§3) Blood was collected by decapitation and exsanguinations in EDTA-treated collection tubes. Blood was centrifuged at 1900 g for 10 minutes (min) at 4° C. and the plasma recovered and flash frozen for later analysis. The brain was removed from the cranium and hindbrain. The cerebellum was removed and the left and right hemisphere were separated. The left hemisphere was stored at −18° C. for quantitative analysis of test compound levels. The right hemisphere was rinsed with phosphate-buffered saline (PBS) buffer and immediately frozen on dry ice and stored at −80° C. until homogenization for biochemical assays.
(§4) Mouse brains from non-transgenic animals were resuspended in 8 volumes of 0.4% DEA (diethylamine)/50 mM NaCl containing protease inhibitors (Roche-11873580001 or 04693159001) per gram of tissue, e.g. for 0.158 g brain, add 1.264 ml of 0.4% DEA. All samples were homogenized in the FastPrep-24 system (MP Biomedicals) using lysing matrix D (MPBio #6913-100) at 6 m/s for 20 seconds. Homogenates were centrifuged at 20800×g for 5 min and supernatants collected. Supernatants were centrifuged at 221.300×g for 50 min. The resulting high speed supernatants were then transferred to fresh eppendorf tubes. Nine parts of supernatant were neutralized with 1 part 0.5 M Tris-HCl pH 6.8 and used to quantify Aβ.
(§5) To quantify the amount of Aβ42, Aβ40, Aβ38, and Aβ37 in the soluble fraction of the brain homogenates, simultaneous specific detection of Aβ42, Aβ40, Aβ38, and Aβ37 was performed using MSD's electro-chemiluminescence multiplex detection technology. In this assay purified monoclonal antibodies specific for Abeta37 (JRD/Aβ37/3), Abeta38 (J&JPRD/Aβ38/5), Abeta40 (JRF/cAβ40/28), and Abeta42 (JRF/cAβ42/26) were coated on MSD 4-plex plates. Briefly, the standards (a dilution of synthetic Aβ42, Aβ40, Aβ38, and Aβ37) were prepared in 1.5 ml Eppendorf tube in Ultraculture, with final concentrations ranging from 10000 to 0.3 pg/m. The samples and standards were co-incubated with Sulfo-tag labelled JRF/rAβ/2 antibody to the N-terminus of Aβ as detector antibody. 50 μl of conjugate/sample or conjugate/standards mixtures were then added to the antibody-coated plate. The plate was allowed to incubate overnight at 4° C. in order to allow formation of the antibody-amyloid complex. Following this incubation and subsequent wash steps the assay was finished by adding read buffer according to the manufacturer's instructions (Meso Scale Discovery, Gaitherburg, Md.).
(§6) The SULFO-TAG emits light upon electrochemical stimulation initiated at the electrode. MSD Sector instrument SI6000 was used for signal read-out.
In this model a Aβ38 increase compared to untreated animals would be advantageous, in particular a Aβ38 increase with at least 10%, more in particular a Aβ38 increase with at least 20%. […]

[2] = tested on: Aβ40; experiment: In vivo efficacy B-1b/B-2b: brain soluble Aβ40, MSD electrochemiluminescence multiplex; conditions: mouse brain soluble fraction, dose 30 mg/kg oral dosing, 4 h after dose; untreated control set at 100; read-out: Aβ40 (% vs Ctrl)_Mean
Excerpt: as §1, with “Aβ42 lowering agent” for “Aβ38 increasing agents”, “reduce Aβ42” for “increase Aβ38”, “Meso Scale Discovery's (MSD)” for “MSD”, “Aβ42 lowering” for “Aβ38 increase”
as §2, with “measuring Aβ42 lowering” for “measuring Aβ38 increase”, “example, Aβ42 lowering compounds” for “example, Aβ38 increasing agents”, “The Aβ42 lowering” for “The Aβ38 increasing”, “and Aβ42” for “and Aβ38”
as §3, §4, §5, §6
The results are shown in Table 5 (dose 30 mg/kg oral dosing) (value for untreated animals as control (Ctrl) was set at 100): […]

[3] = tested on: Aβ42; experiment: In vivo efficacy B-1b: brain soluble Aβ42, MSD electrochemiluminescence multiplex; conditions: mouse brain soluble fraction, dose 30 mg/kg oral dosing, 4 h after dose; untreated control set at 100; read-out: Aβ42 (% vs Ctrl)_Mean
Excerpt: as §1, with “Aβ42 lowering agent” for “Aβ38 increasing agents”, “reduce Aβ42” for “increase Aβ38”, “Meso Scale Discovery's (MSD)” for “MSD”, “Aβ42 lowering” for “Aβ38 increase”
as §2, with “measuring Aβ42 lowering” for “measuring Aβ38 increase”, “example, Aβ42 lowering compounds” for “example, Aβ38 increasing agents”, “The Aβ42 lowering” for “The Aβ38 increasing”, “and Aβ42” for “and Aβ38”
as §3, §4, §5, §6
In this model a Aβ42 lowering compared to untreated animals would be advantageous, in particular a Aβ42 lowering with at least 10%, more in particular a Aβ42 lowering with at least 20%. […]

Row | Structure (SMILES) | response vs control in vivo at 30 mg/kg [1] [%] | response vs control in vivo at 30 mg/kg [2] [%] | response vs control in vivo at 30 mg/kg [3] [%]
1 | COc1c(C#N)ccc2[nH]c(-c3nc4n(n3)CCOC4c3c(F)cccc3Cl)cc12 (single isomer, unassigned) [Compound 117, 2-[8-(2-chloro-6-fluorophenyl)-5,6-dihydro-8H-[1,2,4]triazolo[5,1-c][1,4]oxazin-2-yl]-4-methoxy-1H-indole-5-carbonitrile] | 147 | 112 | 79
2 | COc1c(C#N)ccc2[nH]c(-c3cn4c(n3)C(c3ccc(F)cc3C)OCC4)cc12 (stereo not drawn) [Compound 47, 2-[8-(4-fluoro-2-methylphenyl)-5,6-dihydro-8H-imidazo[2,1-c][1,4]oxazin-2-yl]-4-methoxy-1H-indole-5-carbonitrile] | 222 | 56 | 55
3 | COc1c(C#N)ccc2[nH]c(-c3nc4n(n3)CCOC4c3ccccc3C(F)(F)F)cc12 (stereo not drawn) [Compound 55, 2-[5,6-dihydro-8-[2-(trifluoromethyl)phenyl]-8H-[1,2,4]triazolo[5,1-c][1,4]oxazin-2-yl]-4-methoxy-1H-indole-5-carbonitrile] | 148 | 94 | 68
4 | Cc1cn(-c2ccc3[nH]c(-c4nc5n(n4)CCCC5c4ccc(F)cc4C)nc3c2)cn1 (stereo not drawn) [Compound 176, 8-(4-fluoro-2-methylphenyl)-5,6,7,8-tetrahydro-2-[5-(4-methyl-1H-imidazol-1-yl)-1H-benzimidazol-2-yl]-[1,2,4]triazolo[1,5-a]pyridine] | 126 | 111 | 103
